Data on 18 compounds can be found in patent publication US8552202B2, “Furo[3, 2-B] pyrrol-3-ones as cathespin S inhibitors” (Amura Therapeutics Limited, priority 2008, dated 2013).

What all share (format): biochemical
Experiment [1] addresses Human recombinant cathepsin S (Homo sapiens (Human), UniProt P25774). Briefly: In vitro cathepsin Ki inhibition measurements, cathepsin S. The following applies: for Ki: read-out: In vitro Ki (nM) vs Cath S; for selectivity against other mammalian cathepsins (in words): cathepsin S over other mammalian cathepsins. As for the experimental part: (§1) Stock solutions of substrate or inhibitor were made up to 10 mM in 100% dimethylsulfoxide (DMSO) (Rathburns, Glasgow, U.K.) and diluted as appropriately required. In all cases the DMSO concentration in the assays was maintained at less than 1% (vol./vol.). The equilibrium inhibition constants (Ki^ss) for each compound were measured under steady-state conditions monitoring enzyme activity as a function of inhibitor concentration. The values were calculated on the assumption of pure competitive behaviour (Cornish-Bowden, A. Fundamentals of enzyme kinetics Portland Press; 1995, 93-128.).
(§2) The apparent inhibition constant (Ki) for each compound was determined on the basis that inhibition was reversible and occurred by a pure-competitive mechanism. The Ki values were calculated, from the dependence of enzyme activity as a function of inhibitor concentration, by direct regression analysis (Prism v 3.02) using Equation 2 (Cornish-Bowden, A., 1995.).
(§3) In situations where the apparent dissociation constant (Ki^app) approached the enzyme concentrations, the Ki^app values were calculated using a quadratic solution in the form described by Equation 3 (Morrison, J. F. Trends Biochem. Sci., 7, 102-105, 1982; Morrison, J. F. Biochim. Biophys. Acta. 185, 269-286, 1969: Stone, S. R. and Hofsteenge, J. Biochemistry, 25, 4622-4628, 1986).
(§4) Curves were fitted by non-linear regression analysis (Prism) using a fixed value for the enzyme concentration. Equation 4 was used to account for the substrate kinetics, where ‘Ki’ is the inhibition constant, ‘[So]’ is the initial substrate concentration and ‘KM^app’ is the apparent macroscopic binding (Michaelis) constant for the substrate (Morrison, 1982).

In experiment [2] the target is Human recombinant cathepsin K (Homo sapiens (Human), UniProt P43235). Briefly: In vitro cathepsin Ki inhibition measurements, cathepsin K. Conditions: read-out: In vitro Ki (nM) vs Cath K. As for the experimental part:
as §1
Human recombinant cathepsin K (0.25 nM final; B. Turk, Josef, Stefan Institute, Ljubljana, Slovenia), was routinely assayed in 100 mM sodium acetate; pH 5.5 containing 1 mM EDTA, 10 mM L-cysteine and 1.8 μM Z-Leu-Arg-AMC ([S]=KM).
as §2, §3, §4

Experiment [3] deals with Human liver cathepsin L (Homo sapiens (Human), UniProt P07711). The experiment can be described thus: In vitro cathepsin Ki inhibition measurements, cathepsin L. The following applies: read-out: In vitro Ki (nM) vs Cath L. As to the method: as §1
Human liver cathepsin L, sequence (P07711 114-333): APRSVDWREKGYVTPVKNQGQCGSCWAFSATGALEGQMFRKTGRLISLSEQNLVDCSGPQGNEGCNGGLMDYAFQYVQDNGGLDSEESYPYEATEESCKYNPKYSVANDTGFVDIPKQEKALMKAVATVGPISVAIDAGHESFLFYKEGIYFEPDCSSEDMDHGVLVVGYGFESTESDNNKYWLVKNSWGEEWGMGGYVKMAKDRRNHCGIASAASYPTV
Human liver cathepsin L (0.25 nM final, Athens Research and Technology, GA, USA) was routinely assayed in 10 mM bis-tris propane; pH 6.5 containing 1 mM EDTA, 5 mM 2-mercaptoethanol, 1 mM CaCl2 and 4 μM Ac-Phe-Arg-AMC ([S]=KM) (Bachem).
as §2, §3, §4

Experiment [4] concerns the target Human liver cathepsin B (Homo sapiens (Human), UniProt P07858). Briefly: In vitro cathepsin Ki inhibition measurements, cathepsin B. Conditions: read-out: In vitro Ki (nM) vs Cath B. As for the experimental part:
as §1
Human liver cathepsin B (0.25 nM final; Merck Biosciences), was routinely assayed in 10 mM bis-tris propane; pH 6.5 containing 1 mM EDTA, 5 mM 2-mercaptoethanol, 1 mM CaCl2 and 60 μM Z-Phe-Arg-AMC ([S]=KM) (Bachem, Weil am Rhein, Germany).
as §2, §3
as §4, with “In Equation 3 ‘vi’ is the observed residual activity, ‘F’ is the difference between the maximum activity (i.e. in the absence of inhibitor) and minimum enzyme activity, ‘Eo’ is the total enzyme concentration, ‘Ki^app’ is the apparent dissociation constant and ‘Io’ is the inhibitor concentration. Curves” for “Curves”

The target of experiment [5] is Human recombinant cathepsin V (Homo sapiens (Human), UniProt O60911). The experiment can be described thus: In vitro cathepsin Ki inhibition measurements, cathepsin V. Conditions: read-out: In vitro Ki (nM) vs Cath V. As to the method: as §1
Human recombinant cathepsin V, sequence (O60911 114-334): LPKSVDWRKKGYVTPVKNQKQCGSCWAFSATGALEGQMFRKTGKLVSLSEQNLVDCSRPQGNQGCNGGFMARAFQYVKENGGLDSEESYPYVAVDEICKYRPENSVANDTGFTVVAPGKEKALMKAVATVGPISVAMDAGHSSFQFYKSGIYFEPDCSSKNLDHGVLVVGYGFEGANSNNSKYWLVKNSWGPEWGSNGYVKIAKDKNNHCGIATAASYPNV
Human recombinant cathepsin V (0.25 nM final, Merck Biosciences) was routinely assayed in 100 mM sodium acetate; pH 5.5 containing 10 mM L-cysteine, 0.001% (vol./vol.) zwittergent 3-12 (Merck Biosciences) and 5 μM Z-Leu-Arg-AMC (KM=0.5 μM) (Amura).
as §2, §3, §4

Human recombinant cathepsin K, sequence (P43235 115-329): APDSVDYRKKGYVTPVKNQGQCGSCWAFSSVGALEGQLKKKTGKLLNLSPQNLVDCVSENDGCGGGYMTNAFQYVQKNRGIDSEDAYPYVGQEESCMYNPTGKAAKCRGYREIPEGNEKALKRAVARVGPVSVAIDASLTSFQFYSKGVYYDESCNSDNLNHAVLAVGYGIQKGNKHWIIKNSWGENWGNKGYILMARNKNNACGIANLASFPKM
Human recombinant cathepsin S, sequence (P25774 115-331): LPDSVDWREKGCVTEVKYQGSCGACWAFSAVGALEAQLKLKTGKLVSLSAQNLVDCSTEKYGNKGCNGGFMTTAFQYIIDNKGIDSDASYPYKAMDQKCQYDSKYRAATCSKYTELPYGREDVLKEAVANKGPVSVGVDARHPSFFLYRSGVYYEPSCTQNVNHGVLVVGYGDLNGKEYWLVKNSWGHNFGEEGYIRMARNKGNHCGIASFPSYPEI

With `C[C@H]1CC[C@H]([C@H](NC(=O)c2cccc(-n3ccnc3)c2)C(=O)N2C[C@H](Cl)[C@H]3OCC(=O)[C@H]32)CC1`, the Ki – broadly, a dissociation constant, usually derived from enzyme kinetics or from competition with a known ligand – in experiment [1] is 0.4 nM; in experiment [2] it was greater than 3000 nM; in experiment [3] it was 4500 nM; in experiment [4] it was 4000 nM; in experiment [5] it was 3200 nM.

On to `O=C(N[C@H](C(=O)N1CC[C@H]2OCC(=O)[C@H]21)C1CCCCC1)c1ccccc1` [Compound 1], for which the Ki in experiment [3] was 1250 nM; in experiment [4], greater than 10000 nM; in experiment [5] it was 1900 nM.

Take `O=C(N[C@H](C(=O)N1C[C@H](F)[C@H]2OCC(=O)[C@H]21)C1CCCCC1)c1ccccc1` [Compound 2]: in experiment [1] (cathepsin S over cathepsin K), the “selectivity verses cathepsin K (in words)” value is “little selectivity”. Moreover, in experiment [1] (relative to Compound 1), the “improvement in in vitro potency against human cathepsin S” value (“improvement in in vitro potency” below) was 3.8 fold. Besides, the values for the Ki in experiment [3], in experiment [4] and in experiment [5] were 580 nM, greater than 7000 nM and 700 nM, respectively.

Regarding `O=C(N[C@H](C(=O)N1C[C@H](Cl)[C@H]2OCC(=O)[C@H]21)C1CCCCC1)c1ccccc1` [Compound 3], the “selectivity verses cathepsin K” value in experiment [1] (cathepsin S over cathepsin K) was found to be 4 fold. Moreover, the “improvement in in vitro potency” value in experiment [1] (relative to Compound 1) is 27 fold. The inhibition constant (Ki) in experiment [3] was determined as 100 nM; in experiment [4], 780 nM; in experiment [5], 100 nM.

As for `CC1CCC([C@H](NC(=O)c2ccccc2)C(=O)N2CC[C@H]3OCC(=O)[C@H]32)CC1` (stereo partly drawn) [Compound 4], the “selectivity verses cathepsin K” value in experiment [1] (cathepsin S over cathepsin K) is reported as greater than 65 fold. In addition, the inhibitory constant (Ki) in experiment [1] was 72 nM; in experiment [2], greater than 4800 nM; in experiment [3], greater than 10000 nM; in experiment [4], greater than 10000 nM; in experiment [5] it was greater than 10000 nM. For the same compound, the “improvement in in vitro potency” value in experiment [1] (relative to Compound 1) is reported as 3 fold.

On to `C[C@H]1CC[C@H]([C@H](NC(=O)c2ccccc2)C(=O)N2C[C@H](F)[C@H]3OCC(=O)[C@H]32)CC1` [Compound 5], for which, in experiment [1], the “selectivity against other mammalian cathepsins (in words)” value is given as “high selectivity”. The inhibition constant Ki is 28 nM in experiment [1]; greater than 10000 nM in experiment [2]; greater than 10000 nM in experiment [3]; greater than 10000 nM in experiment [4]; greater than 10000 nM in experiment [5]. For the same compound, in experiment [1] (relative to EXAMPLE 1), the “less potent verses cathepsin S” value stood at 5.6 fold.

`C[C@H]1CC[C@H]([C@H](NC(=O)c2ccccc2)C(=O)N2C[C@@H](Cl)[C@H]3OCC(=O)[C@H]32)CC1` [Compound 6]: in experiment [1], the “selectivity against other mammalian cathepsins (in words)” value is listed as “high selectivity”. The Ki in experiment [1] was 75 nM; in experiment [2] it was greater than 10000 nM; in experiment [3], greater than 10000 nM; in experiment [4], greater than 10000 nM; in experiment [5] it was greater than 10000 nM. Also, the “less potent verses cathepsin S” value in experiment [1] (relative to EXAMPLE 1) is 15 fold.

Consider `O=C(N[C@H](C(=O)N1CC[C@H]2OCC(=O)[C@H]21)C1CCCCC1)c1cccc(-n2cnnn2)c1` [Compound 7], for which the results for the inhibitory constant (Ki) in experiment [3], in experiment [4] and in experiment [5] were greater than 6500 nM, greater than 10000 nM and 5000 nM, respectively.

Take `O=C(N[C@H](C(=O)N1C[C@H](F)[C@H]2OCC(=O)[C@H]21)C1CCCCC1)c1cccc(-n2cnnn2)c1` [Compound 8]: the “selectivity verses cathepsin K” value in experiment [1] (cathepsin S over cathepsin K) amounted to 6.8 fold. Further, in experiment [1] (relative to Compound 7), the “improvement in in vitro potency” value worked out at 3.4 fold. Also, the Ki worked out at 4000 nM in experiment [3], 6000 nM in experiment [4] and 2000 nM in experiment [5].

For the compound `O=C(N[C@H](C(=O)N1C[C@H](Cl)[C@H]2OCC(=O)[C@H]21)C1CCCCC1)c1cccc(-n2cnnn2)c1` [Compound 9], the “selectivity verses cathepsin K” value in experiment [1] (cathepsin S over cathepsin K) was found to be 7.5 fold. In experiment [1] (relative to Compound 7), the “improvement in in vitro potency” value turned out to be 47 fold. In addition, the values for the Ki in experiment [3], in experiment [4] and in experiment [5] were greater than 1200 nM, 650 nM and 240 nM, respectively.

On to `C[C@H]1CC[C@H]([C@H](NC(=O)c2cccc(-n3cnnn3)c2)C(=O)N2CC[C@H]3OCC(=O)[C@H]32)CC1` [Compound 10], for which the “selectivity verses cathepsin K” value in experiment [1] (cathepsin S over cathepsin K) is greater than 125 fold. For the same compound, the Ki in experiment [1] was 79 nM; in experiment [2] it was greater than 10000 nM; in experiment [3] it was greater than 10000 nM; in experiment [4] it was greater than 10000 nM; in experiment [5] it was greater than 10000 nM. Besides, the “improvement in in vitro potency” value in experiment [1] (relative to Compound 7) was found to be 2.2 fold.

In the case of `C[C@H]1CC[C@H]([C@H](NC(=O)c2cccc(-n3cnnn3)c2)C(=O)N2C[C@H](F)[C@H]3OCC(=O)[C@H]32)CC1` [Compound 11], the “selectivity against other mammalian cathepsins (in words)” value in experiment [1] is reported as “high selectivity”. Further, the Ki was 24 nM in experiment [1]; greater than 10000 nM in experiment [2]; greater than 10000 nM in experiment [3]; greater than 10000 nM in experiment [4]; greater than 10000 nM in experiment [5]. For the same compound, in experiment [1] (relative to EXAMPLE 2), the “less potent verses cathepsin S” value is reported as 11 fold.

Regarding `C[C@H]1CC[C@H]([C@H](NC(=O)c2cccc(-n3cnnn3)c2)C(=O)N2C[C@@H](Cl)[C@H]3OCC(=O)[C@H]32)CC1` [Compound 12], in experiment [1], the “selectivity against other mammalian cathepsins (in words)” value is on record as “high selectivity”. Further, the Ki in experiment [1] is 55 nM; in experiment [2] it was greater than 10000 nM; in experiment [3], greater than 10000 nM; in experiment [4] it was greater than 10000 nM; in experiment [5], greater than 10000 nM. For the same compound, the “less potent verses cathepsin S” value in experiment [1] (relative to EXAMPLE 2) turned out to be 25 fold.

Turning to `O=C(N[C@H](C(=O)N1C[C@H](Cl)[C@H]2OCC(=O)[C@H]21)C1CCCCC1)c1cccc(-n2ccnc2)c1` [Compound 13], the inhibition constant Ki in experiment [3] came to 270 nM; in experiment [4], 440 nM; in experiment [5], 170 nM.

Turning to `O=C(N[C@H](C(=O)N1C[C@@H](Cl)[C@H]2OCC(=O)[C@H]21)C1CCCCC1)c1cccc(-n2ccnc2)c1` [Compound 14], the inhibitory constant (Ki) in experiment [3] was found to be 1900 nM; in experiment [4], 5000 nM; in experiment [5], 1800 nM.

Regarding `C[C@H]1CC[C@H]([C@H](NC(=O)c2cccc(-n3ccnc3)c2)C(=O)N2C[C@H](F)[C@H]3OCC(=O)[C@H]32)CC1` [Compound 15], the inhibition constant Ki was 15 nM in experiment [1]; greater than 10000 nM in experiment [2]; greater than 10000 nM in experiment [3]; greater than 10000 nM in experiment [4]; greater than 10000 nM in experiment [5].

Consider `C[C@H]1CC[C@H]([C@H](NC(=O)c2ccccc2)C(=O)N2C[C@H](Cl)[C@H]3OCC(=O)[C@H]32)CC1` [EXAMPLE 1, N—((S)-2-((3aS,6S,6aS)-6-chloro-3-oxodihydro-2H-furo[3,2-b]pyrrol-4(5H,6H,6aH)-yl)-1-((1r,4S)-4-methylcyclohexyl)-2-oxoethyl)benzamide], for which the “selectivity against other mammalian cathepsins (in words)” value in experiment [1] is listed as “high selectivity”. The Ki is 5 nM in experiment [1]; greater than 10000 nM in experiment [2]; 1400 nM in experiment [3]; greater than 10000 nM in experiment [4]; greater than 10000 nM in experiment [5]. Also, the “improvement in in vitro potency” value stood at 45 fold in experiment [1] (relative to Compound 1) and 111 fold in experiment [1] (relative to prior art compound (38)).

In the case of `O=C(N[C@@H](CC1CCCCC1)C(=O)N1CC[C@H]2OCC(=O)[C@H]21)c1ccccc1` [compound (38), reference compound], the Ki in experiment [2] was greater than 4000 nM; in experiment [3] it was 1700 nM; in experiment [4], greater than 10000 nM; in experiment [5], 5700 nM.
